Marks after values point to notes of the source that are not given here.
Tests used:
[1] = test system: diet-induced hypercholesterolemic rats; experiment: Kidney function: serum creatinine and urea; details: comparison among the groups
glutathione reductase = experiment: Glutathione reductase activity in organs of rats; format: in vivo; details: hypercholesterolemic rats
glutathione peroxidase = experiment: Glutathione peroxidase activity in organs of rats; format: in vivo; details: hypercholesterolemic rats
glutathione transferase = experiment: Glutathione transferase activity in organs of rats; format: in vivo; details: hypercholesterolemic rats

O=C(O)c1cccnc1 [niacin]
level of serum creatinine [1]: no significant differences
level of serum urea [1]: no significant differences
Glutathione Reductase Activity, Brain (glutathione reductase; brain): 14.95 ± 1.67^a nmol/min/mg protein
Glutathione Reductase Activity, Heart (glutathione reductase; heart): 12.53 ± 0.85^a nmol/min/mg protein
Glutathione Reductase Activity, Kidney (glutathione reductase; kidney): 12.36 ± 0.10^a nmol/min/mg protein
Glutathione Reductase Activity, Spleen (glutathione reductase; spleen): 49.48 ± 3.32^a nmol/min/mg protein
Glutathione Peroxidase Activity, Brain (glutathione peroxidase; brain): 0.59 ± 0.18^a nmol/min/mg protein
Glutathione Peroxidase Activity, Heart (glutathione peroxidase; heart): 5.14 ± 0.63^a nmol/min/mg protein
Glutathione Peroxidase Activity, Kidney (glutathione peroxidase; kidney): 3.35 ± 1.30^a nmol/min/mg protein
Glutathione Peroxidase Activity, Spleen (glutathione peroxidase; spleen): 0.21 ± 0.034^a nmol/min/mg protein
Glutathione Transferase Activity, Brain (glutathione transferase; brain): 0.28 ± 0.04^a nmol/min/mg protein
Glutathione Transferase Activity, Heart (glutathione transferase; heart): 0.21 ± 0.011^a nmol/min/mg protein
Glutathione Transferase Activity, Kidney (glutathione transferase; kidney): 0.20 ± 0.05^b nmol/min/mg protein
Glutathione Transferase Activity, Spleen (glutathione transferase; spleen): 0.16 ± 0.07^b nmol/min/mg protein

Source: patent publication US8268369B2, “Compositions and methods for treating hypercholesterolemia using Ortanique peel extract” (The University of the West Indies, priority 2008, dated 2012)
